Data published in patent publication US12440479B2, “Prevention or treatment of chronic organ injury” (GEORG-AUGUST-UNIVERSITAET GOETTINGEN, STIFTUNG …, priority 2018, dated 2025).

Legend:
[1] = tested on: ARNT; assay: ARNT mRNA expression levels in organs of treated mice (qRT-PCR); format: in vivo; details: FK506 0.2 mg/kg or GPI-1046 30 mg/kg orally per day; kidney, heart, brain, spinal cord, skin, liver, lung and intestine
Method: Solutions were changed once a day and mice were sacrificed at indicated time points.
Mice were injected subcutaneously with 10 mg/kg body weight per day GPI-1046 (Santa Cruz Biotechnology, Dallas, USA) in DMSO once daily starting one day prior of surgery, control mice received equivalent volume of vehicle DMSO. For oral administration, GPI-1046 stock solution was diluted in glucose-water (5%) and orally applied on the basis of an average drinking volume of 3 mL and a body weight of 20 g per mouse. Three days after challenging with UUO, mice were treated orally with either vehicle buffer glucose (5%) or 30 mg/kg body weight per day GPI-1046, respectively.
For SYBR-based real-time PCR, cDNA synthesis was performed by using DNase I digestion (Invitrogen, Carlsbad, USA) and SuperScript II Reverse Transcriptase (Invitrogen, Carlsbad, USA) according to the manufacturer's protocol. 1 μL of reverse-transcribed cDNA was added to the reaction mixture containing the primer pair (200 nmol/L each) and diluted 2× Fast SYBR Green Master Mix (Applied Biosystems, Carlsbad, USA) in a final volume of 20 μL for each PCR reaction. The real-time PCR reactions were performed in a 96-well reaction plate using the StepOne Plus Real-Time System (Applied Biosystems, Carlsbad, USA) and were done in triplicates. […] The relative expression levels were calculated using the equation 2^−ddCt.

[2] = tested on: UUO-challenged kidneys; assay: Unilateral ureteral obstruction (UUO): tubular injury and interstitial fibrosis (histology, immunostaining); format: in vivo, mice
[3] = tested on: functional parenchyma; assay: Streptozotocin (STZ) model of diabetic nephropathy; format: in vivo; details: STZ mice; FK506 0.2 mg/kg or GPI-1046 10 mg/kg subcutaneously per day
Method: Based on these observations, we next hypothesized that FK506 and small molecule FKBP12 inhibitor GPI-1046 could equally protect functional parenchyma in an experimental models of diabetic nephropathy (168). Diabetes was induced in 8 to 12 weeks old C57BL/6N mice by a single intraperitoneal injection of streptozotocin (STZ) at 200 mg/kg in 10 mmol/L citrate buffer (pH 4.5), citrate buffer alone was injected as control (168). FK506 (0.2 mg/kg body weight) and GPI-146 (10 mg/kg body weight) in DMSO once daily were applied by subcutaneous injections starting one day prior of STZ administration. At day 3 after STZ injection, diabetes was confirmed by urine dipstick. Mice were sacrificed 8 weeks after STZ injection for further analyses.

[4] = tested on: intrarenal ARNT/ALK3 signaling; assay: UUO kidneys: ARNT/ALK3 expression and pSmad1/5/8 (qRT-PCR, immunoblotting, immunostaining); format: in vivo, mice; details: for canonical BMP signaling responses / intrarenal ARNT and ALK3 transcription: FK506 0.2 mg/kg or GPI-1046 30 mg/kg orally per day starting three days after UUO; for intrarenal NFAT signaling: picomolar FK506 or GPI-1046
Method: Eight to twelve weeks-old C57/6, yGTcre−;Yy1fl/fl and yGTcre+;Yy1fl/fl mice were anesthetized with isoflurane inhalation (2-3%), analgesia was performed by subcutaneous injection of 0.1 mg/kg body weight per day Buprenorphine. The ureter was separated from the surrounding tissues and two ligatures were placed about 5 mm apart in upper two-thirds of the left ureter to obtain reliable obstruction. Mice were sacrificed 3, 7 or 10 days after ureteral obstruction for further analyses, as described before (53, 153-155).
Paraffin-embedded specimens were deparaffinized in xylene and rehydrated in ethanol containing distilled water. Tissue sections were stained using polyclonal antibodies against ALK3 (sc-20736, Santa Cruz Biotechnology, Dallas, USA) and ARNT (3718S, Cell Signaling, Danvers, USA), peroxidase labeling was performed using Vectastain Universal Elite ABC Kit (Vector Laboratories, Burlingame, USA) according to the manufacturer's protocol. AEC Substrate-Chromogen (Dako, Glostrup, Denmark) was applied for peroxidase visualization according to the manufacturer's protocol. Nuclear counterstain was performed by using Mayer's Hematoxylin Solution (Sigma, St. Louis, USA).
For immunofluorescent staining, primary antibodies against ARNT (5537S, Cell Signaling, Danvers, USA), Hif1α (H6535, Sigma, St. Louis, USA), Hif2α (ab20654, Abcam Biochemicals, Cambridge, UK), phosphorylated Smad1/5/8 (pSmad1/5/8, sc-12353, Santa Cruz Biotechnology, Dallas, USA), CD45 (550539, BD Biosciences, Franklin Lakes, USA), Collagen-1 (ab34710, Abcam Biochemicals, Cambridge, UK), α-smooth muscle actin (aSMA, A5228, Sigma, St. Louis, USA), FKBP12 (ab2918, Abcam Biochemicals, Cambridge, UK) and YY1 (ab12132, Abcam Biochemicals, Cambridge, UK) were used, secondary antibodies were labeled with Alexa Fluor 488 or 568 (Life Technologies, Carlsbad, USA). Renal basement membranes were stained with antibodies against Collagen-4 (1340-30, SouthernBiotech, Birmingham, USA), cardiac cell membranes with antibodies against WGA (W11261, Life Technologies, Carlsbad, USA). Nuclear staining was performed using 4′,6-diamidino-2-phenylindole (DAPI, Vector Laboratories, Burlingame, USA). Relative areas positive for Collagen-1, aSMA, tubular nuclei positive for ARNT and pSmad1/5/8 were quantified in 10 high power fields per section at 400× magnification.
For SYBR-based real-time PCR, cDNA synthesis was performed by using DNase I digestion (Invitrogen, Carlsbad, USA) and SuperScript II Reverse Transcriptase (Invitrogen, Carlsbad, USA) according to the manufacturer's protocol. 1 μL of reverse-transcribed cDNA was added to the reaction mixture containing the primer pair (200 nmol/L each) and diluted 2× Fast SYBR Green Master Mix (Applied Biosystems, Carlsbad, USA) in a final volume of 20 μL for each PCR reaction. The real-time PCR reactions were performed in a 96-well reaction plate using the StepOne Plus Real-Time System (Applied Biosystems, Carlsbad, USA) and were done in triplicates. An initiation step at 95° C. for 20 seconds was followed by 40 cycles at 95° C. for 3 to seconds and 60° C. for 30 seconds, with one cycle of dissociation at 95° C. for 15 seconds, 60° C. for 60 seconds, and 95° C. for 15 seconds. The intercalation of SYBR Green dye and its fluorescent signal is directly proportional to the amount of amplified DNA and was transformed into the cycle threshold (Ct). For normalization, the Ct values of the housekeeping genes Gapdh and Actb were subtracted from the Ct values of the gene of interest to generate the dCt values. The relative expression levels were calculated using the equation 2^−ddCt.
Tissue and cells were homogenized in NP40 lysis buffer (Life technologies, Carlsbad, USA) supplemented with protease inhibitor cocktail (Roche, Basel, Switzerland).

[5] = UUO, FK506 0.2 mg/kg or GPI-1046 30 mg/kg orally per day starting three days after UUO
[6] = UUO, FK506 0.02-5.0 mg/kg or CsA 10 mg/kg orally per day starting one day prior to UUO
[7] = UUO, VMO 12.5 mg/kg intraperitoneally or FK506 0.2 mg/kg orally per day
[8] = UUO, intrarenal ARNT induction depleted (Arnt-VMO)

Row | SMILES | transcriptional ARNT induction in organs [1] | effect of FK506 on ALK3 expression, nuclear pSmad1/5/8, tubular injury or interstitial fibrosis ([2]; UUO mice that had also received Fkbp12-VMO or Yy1-VMO) | effect of FK506 on BMP signaling, tubular injury, renal fibrogenesis, ALK3 transcription ([2]; UUO, mice with YY1 depleted in TECs (yGTcre+;Yy1fl/fl), FK506 0.2 mg/kg orally per day) | tubular injury and renal fibrogenesis [2, 5] | chronic tubular injury [2, 6] | interstitial fibrosis [2, 6] | tubular injury and tubulointerstitial fibrosis [2, 7] | protection of kidneys from tubular injury and progressive fibrotic disease [2, 8] | protection of functional parenchyma from chronic injury [3] | renal ARNT expression ([4]; UUO mice, low-dose FK506 or CsA) | nuclear pSmad1/5/8 ([4]; UUO-challenged murine kidneys) | expression of ALK3 ([4]; UUO-challenged murine kidneys, treatment starting one day prior) | canonical BMP signaling responses ([4]; UUO) | intrarenal ARNT and ALK3 transcription ([4]; UUO) | intrarenal ARNT, ALK3 and nuclear pSmad1/5/8 immunostaining [4, 7] | intrarenal ALK3-dependent BMP signaling responses [4, 8] | intrarenal NFAT signaling ([4]; UUO) | tubular injury and renal fibrogenesis ([2]; UUO, 10 mg/kg subcutaneously per day starting one day prior) | intrarenal ARNT and ALK3 transcription, BMP signaling responses ([4]; UUO, 10 mg/kg subcutaneously per day starting one day prior, compared to FK506)
1 | C=CC[C@@H]1/C=C(\C)C[C@H](C)C[C@H](OC)[C@H]2O[C@@](O)(C(=O)C(=O)N3CCCC[C@H]3C(=O)O[C@H](/C(C)=C/[C@@H]3CC[C@@H](O)[C@H](OC)C3)[C@H](C)[C@@H](O)CC1=O)[C@H](C)C[C@@H]2OC [FK506, tacrolimus] | transcriptional ARNT induction was present | no additive effects | no additive effects | attenuated | reduced | reduced | attenuated | failure of FK506 to protect | equally effective | significantly increased | nuclear pSmad1/5/8 accumulation | specifically induced | enhanced | equally effective | equally induced | failed to induce | not affecting | – | –
2 | CCC(C)(C)C(=O)C(=O)N1CCC[C@H]1C(=O)OCCCc1cccnc1 [GPI-1046, 3-(3-pyridyl)-1-propyl-(2S)-1-(3,3-dimethyl-1,2-dioxopentyl)-2-pyrrolidinedine carboxylate] | transcriptional ARNT induction was present | – | – | attenuated | – | – | – | – | equally effective | – | – | – | enhanced | equally effective | – | – | not affecting | protected | equally induced
